# According to patent US6753338B2, “Methods for treating hypertension, angina, and congestive heart failure using of optically pure (-) amlodipine” (Sepracor Inc., priority 1991, dated 2004):
# Tested on: β-adrenergic
# Test: not given
# Details: L-form versus D-enantiomer; cited from earlier work
row,SMILES,potency relative to the D-enantiomer
1,CC(C)NC[C@H](O)COc1cccc2ccccc12,100 times

# Tested on: potassium-depolarized rat aorta
# Test: not given
# Details: in vitro; cited from earlier work
row,SMILES,activity relative to the racemic mixture in antagonizing calcium-induced constriction
1,"CCOC(=O)C1=C(COCCN)NC(C)=C(C(=O)OC)C1c1ccccc1Cl (single isomer, unassigned; isomer 3) [(−) isomer, 3-ethyl 5-methyl (−)-2-[2-aminoethoxy)methyl]-4-(2-chlorophenyl)-1,4-dihydro-6-methyl-3,5-pyridine dicarboxylate]",twice as active as the racemic mixture

# Tested on: K+-depolarized isolated guinea pig ileal segment
# Test: Calcium antagonism, guinea pig ileum (in vitro)
# Details: Cavia porcellus; reference agents; K+-depolarized ileal segment in Ca-free physiological salt solution, 37° C., added calcium 20 μg/ml CaCl; read-out: ED100 (inhibition of contractile response to added calcium)
# From the text: Calcium Antagonism, Guinea Pig Ileum (in Vitro):
row,SMILES,IC100
1,CN1CCC(=C2c3ccccc3C=Cc3ccccc32)CC1 [cyproheptadine],0.025 µg/mL
2,COc1ccc([C@@H]2Sc3ccccc3N(CCN(C)C)C(=O)[C@@H]2OC(C)=O)cc1 [diltiazem],0.01 µg/mL
3,CN(C)CCOC(c1ccccc1)c1ccccc1 [diphenhydramine],1 µg/mL
4,Fc1ccc(C(c2ccc(F)cc2)N2CCN(C/C=C/c3ccccc3)CC2)cc1 [flunarizine],0.1 µg/mL
5,COc1ccc(CN(CCN(C)C)c2ccccn2)cc1 [mepyramine],> 5 µg/mL
6,COc1ccc(Cc2nccc3cc(OC)c(OC)cc23)cc1OC [papaverine],4 µg/mL
7,CC(CN1c2ccccc2Sc2ccccc21)N(C)C (stereo not shown) [promethazine],0.25 µg/mL
8,CC(C)NCC(O)COc1cccc2ccccc12 (stereo not shown) [propranolol],4 µg/mL

# Same assay, conditions: reference agents; K+-depolarized ileal segment in Ca-free physiological salt solution, 37° C., added calcium 20 μg/ml CaCl
row,SMILES,ED100 (inhibition of contractile response to added calcium)
1,C(=C\c1ccccc1)/CN1CCN(C(c2ccccc2)c2ccccc2)CC1 [cinnazrizine],1 µg/mL
2,CC(C)[N+]1(C)[C@@H]2CC[C@H]1CC(OC(=O)C(CO)c1ccccc1)C2.[Br-] (stereo partly shown) [ipratropium bromide],> 2 µg/mL
3,CC(COc1ccccc1)NC(C)C(O)c1ccc(O)cc1 (stereo not shown) [isoxuprine],4 µg/mL
